Results reported in ChEMBL document CHEMBL1201862, “PubChem BioAssay data set” (2004).
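Dose response: 5 concentrations. Exposure: 48 h. Format: 96-well plates. Endpoint: linear interpolation; highest concentration if not reached. Abbreviation: GI50, concentration required for 50% inhibition of growth.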 Active and inactive are the calls of the source. Rule as the data show it: active = GI50 up to about 1.1 µM and inactive = higher.

How the values were obtained:
Experiment in all cases: NCI tumour cell line growth inhibition, 48 h
A498 = system: A498
ACHN = system: ACHN
BT-549 = system: BT-549
HCT-15 = system: HCT-15
HOP-62 = system: HOP-62
HT-29 = system: HT-29
IGROV-1 = system: IGROV-1
MCF7 = system: MCF7
MDA-MB-435 = system: MDA-MB-435
NCI-H226 = system: NCI-H226
NCI-H23 = system: NCI-H23
OVCAR-8 = system: OVCAR-8
RXF 393 = system: RXF 393
SF-268 = system: SF-268
SF-539 = system: SF-539
SNB-75 = system: SNB-75
SR = system: SR
T47D = system: T47D
TK-10 = system: TK-10
UACC-257 = system: UACC-257

SMILES | GI50 (A498) | GI50 (ACHN) | GI50 (BT-549) | GI50 (HCT-15) [µM] | GI50 (HOP-62) | GI50 (HT-29) | GI50 (IGROV-1) | GI50 (MCF7) | GI50 (MDA-MB-435) | GI50 (NCI-H226) | GI50 (NCI-H23) | GI50 (OVCAR-8) | GI50 (RXF 393) | GI50 (SF-268) | GI50 (SF-539) | GI50 (SNB-75) | GI50 (SR) | GI50 (T47D) | GI50 (TK-10) | GI50 (UACC-257)
NC1=Nc2ncccc2C(=O)NN1 | > 10 µM (inactive) | > 10 µM (inactive) | > 10 µM (inactive) | > 10 | > 10 µM (inactive) | > 10 µM (inactive) | > 10 µM (inactive) | > 10 µM (inactive) | > 10 µM (inactive) | > 10 µM (inactive) | > 10 µM (inactive) | > 10 µM (inactive) | > 10 µM (inactive) | > 10 µM (inactive) | > 10 µM (inactive) | > 10 µM (inactive) | > 10 µM (inactive) | > 10 µM (inactive) | > 10 µM (inactive) | > 10 µM (inactive)
CC1(C)[C@H]2Cc3cc(-c4cc5c(cn4)[C@@H]4C[C@H]([C@@H]5[C@@H]5c6cc(-c7cc8c(cn7)[C@@H]7C[C@H](C8)C7(C)C)ncc6[C@@H]6C[C@H]5C6(C)C)C4(C)C)ncc3[C@@H]1C2 | > 100 µM (inactive) | > 100 µM (inactive) | > 100 µM (inactive) | > 100 | > 100 µM (inactive) | > 100 µM (inactive) | > 100 µM (inactive) | > 100 µM (inactive) | > 100 µM (inactive) | > 100 µM (inactive) | > 100 µM (inactive) | > 100 µM (inactive) | > 100 µM (inactive) | > 100 µM (inactive) | – | > 100 µM (inactive) | > 100 µM (inactive) | > 100 µM (inactive) | – | > 100 µM (inactive)
COc1cc(/C=C2\C[C@H]3[C@@H]4CCC5=CC(=O)CC[C@]5(C)[C@H]4CC[C@]3(C)C2=O)cc(OC)c1OC | 17.7 µM (inactive) | 9.16 µM (inactive) | 3.29 µM (inactive) | 4.82 | 12.8 µM (inactive) | 5.82 µM (inactive) | 8.99 µM (inactive) | 3.56 µM (inactive) | 3.36 µM (inactive) | > 28.5 µM (inactive) | 6.4 µM (inactive) | 4 µM (inactive) | 10.1 µM (inactive) | 57.3 µM (inactive) | 46.7 µM (inactive) | 9.08 µM (inactive) | 3.04 µM (inactive) | 2.04 µM (inactive) | 19.8 µM (inactive) | 6.07 µM (inactive)
Cc1ccc(S(=O)(=O)ON2C(=O)c3c(N)c(C#N)c(-c4ccccc4)c(-c4ccccc4)c3C2=O)cc1 | 20 µM (inactive) | 16.4 µM (inactive) | 13.1 µM (inactive) | 17.2 | – | 19.1 µM (inactive) | 15.8 µM (inactive) | 16 µM (inactive) | 9.77 µM (inactive) | 15.9 µM (inactive) | – | 17.6 µM (inactive) | 10.4 µM (inactive) | 34.3 µM (inactive) | 21.6 µM (inactive) | 36.4 µM (inactive) | 8.39 µM (inactive) | 18.2 µM (inactive) | 17.3 µM (inactive) | 18.6 µM (inactive)
O=C(Cn1nc(Br)c(Br)c1Br)c1ccccc1 | 35 µM (inactive) | 27.3 µM (inactive) | 20.2 µM (inactive) | 31.6 | 37.2 µM (inactive) | 22.2 µM (inactive) | 27.7 µM (inactive) | 36.2 µM (inactive) | 31 µM (inactive) | 11.8 µM (inactive) | 24.8 µM (inactive) | 34.5 µM (inactive) | 13.6 µM (inactive) | 51.3 µM (inactive) | 18.2 µM (inactive) | 23.2 µM (inactive) | 0.152 µM (active) | 24.5 µM (inactive) | 13.7 µM (inactive) | 20 µM (inactive)
O=c1[nH]nc(Cc2ccccc2)n1/N=C/c1ccncc1 | 39 µM (inactive) | > 100 µM (inactive) | 68.9 µM (inactive) | > 100 | 48.2 µM (inactive) | > 100 µM (inactive) | > 100 µM (inactive) | > 100 µM (inactive) | > 100 µM (inactive) | > 100 µM (inactive) | > 100 µM (inactive) | > 100 µM (inactive) | > 100 µM (inactive) | > 100 µM (inactive) | > 100 µM (inactive) | > 100 µM (inactive) | > 100 µM (inactive) | > 100 µM (inactive) | > 100 µM (inactive) | > 100 µM (inactive)
Nc1c(S(=O)(=O)O)cc(S(=O)(=O)O)c2ccc(/N=N/c3ccccc3)c(O)c12 | > 100 µM (inactive) | > 100 µM (inactive) | > 100 µM (inactive) | > 100 | > 100 µM (inactive) | > 100 µM (inactive) | > 100 µM (inactive) | > 100 µM (inactive) | > 100 µM (inactive) | > 100 µM (inactive) | > 100 µM (inactive) | > 100 µM (inactive) | > 100 µM (inactive) | > 100 µM (inactive) | > 100 µM (inactive) | > 100 µM (inactive) | > 100 µM (inactive) | > 100 µM (inactive) | > 100 µM (inactive) | > 100 µM (inactive)
CNc1ccc(C)cc1S(=O)(=O)c1ccccc1[N+](=O)[O-] | 62.5 µM (inactive) | 30.8 µM (inactive) | 46.6 µM (inactive) | 41.3 | 58.9 µM (inactive) | 48.1 µM (inactive) | 58.5 µM (inactive) | 30 µM (inactive) | 25.5 µM (inactive) | 75.5 µM (inactive) | 63 µM (inactive) | 78 µM (inactive) | > 100 µM (inactive) | 53 µM (inactive) | > 100 µM (inactive) | 43.3 µM (inactive) | 51.3 µM (inactive) | 29 µM (inactive) | 99.3 µM (inactive) | –
CN(C)CCCn1c(Cc2ccc(Cl)cc2)nc2cc(C(F)(F)F)ccc21 | 12.7 µM (inactive) | 13.2 µM (inactive) | 17 µM (inactive) | 17.1 | 15.2 µM (inactive) | 14.6 µM (inactive) | 13.1 µM (inactive) | 14.5 µM (inactive) | 12.9 µM (inactive) | 18.7 µM (inactive) | 15.8 µM (inactive) | 17.3 µM (inactive) | 9.06 µM (inactive) | 14.1 µM (inactive) | 16.3 µM (inactive) | – | 15 µM (inactive) | 12 µM (inactive) | 15.3 µM (inactive) | 15.6 µM (inactive)
CS(=O)(=O)Nc1ccc2c(c1)oc(=O)c1ccccc12 | > 100 µM (inactive) | > 100 µM (inactive) | > 100 µM (inactive) | > 100 | > 100 µM (inactive) | > 100 µM (inactive) | > 100 µM (inactive) | > 100 µM (inactive) | > 100 µM (inactive) | > 100 µM (inactive) | > 100 µM (inactive) | > 100 µM (inactive) | > 100 µM (inactive) | 13.3 µM (inactive) | > 100 µM (inactive) | > 100 µM (inactive) | > 100 µM (inactive) | > 100 µM (inactive) | – | > 100 µM (inactive)
